Measurements: ChEMBL document CHEMBL1201862, “PubChem BioAssay data set” (2004)
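Five concentrations, 48 hours, 96-well plates. GI50 is the concentration that inhibits growth by half.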 The source made the active and inactive calls. Cut-off read from the data, not from the text of the source: active = GI50 up to about 1.1 µM and inactive = higher.

Columns and labels:
Assay in all cases: DTP human tumour cell line panel, 48 h
786-0 = tested on: 786-0
A498 = tested on: A498
A549 = tested on: A549
ACHN = tested on: ACHN
BT-549 = tested on: BT-549
CAKI-1 = tested on: CAKI-1
CCRF-CEM = tested on: CCRF-CEM
COLO 205 = tested on: COLO 205
DU-145 = tested on: DU-145
EKVX = tested on: EKVX
HCC 2998 = tested on: HCC 2998
HCT-116 = tested on: HCT-116
HCT-15 = tested on: HCT-15
HOP-62 = tested on: HOP-62
HOP-92 = tested on: HOP-92
HT-29 = tested on: HT-29
IGROV-1 = tested on: IGROV-1
K562 = tested on: K562
KM12 = tested on: KM12
LOX IMVI = tested on: LOX IMVI
M14 = tested on: M14
MCF7 = tested on: MCF7
MDA-MB-231 = tested on: MDA-MB-231
MDA-MB-435 = tested on: MDA-MB-435
MDA-N = tested on: MDA-N
MOLT-4 = tested on: MOLT-4
Malme-3M = tested on: Malme-3M
NCI-H226 = tested on: NCI-H226
NCI-H23 = tested on: NCI-H23
NCI-H460 = tested on: NCI-H460
NCI-H522 = tested on: NCI-H522
NCI/ADR-RES = tested on: NCI/ADR-RES
OVCAR-3 = tested on: OVCAR-3
OVCAR-4 = tested on: OVCAR-4
OVCAR-5 = tested on: OVCAR-5
OVCAR-8 = tested on: OVCAR-8
PC-3 = tested on: PC-3
RPMI-8226 = tested on: RPMI-8226
RXF 393 = tested on: RXF 393
SF-268 = tested on: SF-268
SF-295 = tested on: SF-295
SF-539 = tested on: SF-539
SK-MEL-28 = tested on: SK-MEL-28
SK-MEL-2 = tested on: SK-MEL-2
SK-MEL-5 = tested on: SK-MEL-5
SK-OV-3 = tested on: SK-OV-3
SN12C = tested on: SN12C
SNB-19 = tested on: SNB-19
SNB-75 = tested on: SNB-75
SR = tested on: SR
SW-620 = tested on: SW-620
T47D = tested on: T47D
TK-10 = tested on: TK-10
U-251 = tested on: U-251
UACC-257 = tested on: UACC-257
UACC-62 = tested on: UACC-62
UO-31 = tested on: UO-31

For `C/C(=C\c1ccccc1)C(=O)NCc1ccc(C(=O)NCCc2c[nH]c3ccccc23)cc1`, which GI50 (786-0) is on record?
The GI50 was 76 µM (inactive).

What about the GI50 (A498) of the same compound?
The GI50 was 22 µM (inactive).

And the GI50 (A549)?
Its GI50 is > 100 µM (inactive).

And the GI50 (ACHN)?
Its GI50 is 38.1 µM (inactive).

What about the GI50 (BT-549) of the same compound?
The GI50 was > 100 µM (inactive).

What about the GI50 (CAKI-1) of the same compound?
Its GI50 is > 100 µM (inactive).

What about the GI50 (CCRF-CEM) of the same compound?
The GI50 was 2.39 µM (inactive).

What about the GI50 (COLO 205) of the same compound?
Its GI50 is 37.6 µM (inactive).

And the GI50 (DU-145)?
Its GI50 is > 100 µM (inactive).

What about the GI50 (EKVX) of the same compound?
Its GI50 is 48.9 µM (inactive).

And the GI50 (HCC 2998)?
The GI50 was 16 µM (inactive).

And the GI50 (HCT-116)?
Its GI50 is 58.3 µM (inactive).

And the GI50 (HCT-15)?
The GI50 was greater than 100 µM.

And the GI50 (HOP-62)?
The GI50 was 82 µM (inactive).

What about the GI50 (HOP-92) of the same compound?
The GI50 was > 100 µM (inactive).

What about the GI50 (HT-29) of the same compound?
The GI50 was > 100 µM (inactive).

What about the GI50 (IGROV-1) of the same compound?
The GI50 was > 100 µM (inactive).

What about the GI50 (K562) of the same compound?
Its GI50 is > 100 µM (inactive).

And the GI50 (KM12)?
Its GI50 is 33.2 µM (inactive).

And the GI50 (LOX IMVI)?
The GI50 was 61.1 µM (inactive).

And the GI50 (M14)?
Its GI50 is > 100 µM (inactive).

What about the GI50 (MCF7) of the same compound?
Its GI50 is 24.3 µM (inactive).

What about the GI50 (MDA-MB-231) of the same compound?
The GI50 was > 100 µM (inactive).

And the GI50 (MDA-MB-435)?
Its GI50 is 78 µM (inactive).

And the GI50 (MDA-N)?
The GI50 was > 100 µM (inactive).

And the GI50 (MOLT-4)?
The GI50 was 60.7 µM (inactive).

And the GI50 (Malme-3M)?
Its GI50 is > 100 µM (inactive).

And the GI50 (NCI-H226)?
Its GI50 is > 100 µM (inactive).

What about the GI50 (NCI-H23) of the same compound?
The GI50 was 80.4 µM (inactive).

And the GI50 (NCI-H460)?
The GI50 was 25.9 µM (inactive).

And the GI50 (NCI-H522)?
Its GI50 is 69 µM (inactive).

What about the GI50 (NCI/ADR-RES) of the same compound?
The GI50 was > 100 µM (inactive).

What about the GI50 (OVCAR-3) of the same compound?
Its GI50 is 42 µM (inactive).

And the GI50 (OVCAR-4)?
Its GI50 is 86.5 µM (inactive).

What about the GI50 (OVCAR-5) of the same compound?
The GI50 was > 100 µM (inactive).

And the GI50 (OVCAR-8)?
The GI50 was > 100 µM (inactive).

And the GI50 (PC-3)?
The GI50 was 54.6 µM (inactive).

And the GI50 (RPMI-8226)?
The GI50 was > 100 µM (inactive).

What about the GI50 (RXF 393) of the same compound?
The GI50 was > 100 µM (inactive).

And the GI50 (SF-268)?
The GI50 was > 100 µM (inactive).

And the GI50 (SF-295)?
Its GI50 is > 100 µM (inactive).

What about the GI50 (SF-539) of the same compound?
Its GI50 is > 100 µM (inactive).

And the GI50 (SK-MEL-28)?
The GI50 was > 100 µM (inactive).

And the GI50 (SK-MEL-2)?
Its GI50 is > 100 µM (inactive).

And the GI50 (SK-MEL-5)?
Its GI50 is 50.5 µM (inactive).

What about the GI50 (SK-OV-3) of the same compound?
Its GI50 is > 100 µM (inactive).

And the GI50 (SN12C)?
The GI50 was > 100 µM (inactive).

And the GI50 (SNB-19)?
Its GI50 is > 100 µM (inactive).

And the GI50 (SNB-75)?
The GI50 was > 100 µM (inactive).

And the GI50 (SR)?
The GI50 was > 100 µM (inactive).

And the GI50 (SW-620)?
The GI50 was > 100 µM (inactive).

What about the GI50 (T47D) of the same compound?
Its GI50 is > 100 µM (inactive).

And the GI50 (TK-10)?
Its GI50 is 16.4 µM (inactive).

What about the GI50 (U-251) of the same compound?
Its GI50 is > 100 µM (inactive).

And the GI50 (UACC-257)?
The GI50 was 13.6 µM (inactive).

What about the GI50 (UACC-62) of the same compound?
The GI50 was 14 µM (inactive).

And the GI50 (UO-31)?
The GI50 was 51.6 µM (inactive).

Which GI50 (786-0) does the source give for `Oc1ccc2ccccc2c1NCn1nc(CCCCCCCCc2nn(CNc3c(O)ccc4ccccc34)c(=S)o2)oc1=S` here?
Its GI50 is > 100 µM (inactive).

And the GI50 (A498)?
Its GI50 is > 100 µM (inactive).

And the GI50 (A549)?
The GI50 was > 100 µM (inactive).

What about the GI50 (ACHN) of the same compound?
The GI50 was > 100 µM (inactive).

What about the GI50 (BT-549) of the same compound?
Its GI50 is > 100 µM (inactive).

And the GI50 (CAKI-1)?
The GI50 was > 100 µM (inactive).

And the GI50 (COLO 205)?
The GI50 was > 100 µM (inactive).

And the GI50 (DU-145)?
The GI50 was > 100 µM (inactive).

What about the GI50 (EKVX) of the same compound?
Its GI50 is > 100 µM (inactive).

And the GI50 (HCC 2998)?
Its GI50 is > 100 µM (inactive).

What about the GI50 (HCT-116) of the same compound?
The GI50 was 6.49 µM (inactive).

And the GI50 (HCT-15)?
The GI50 was 43.1 µM.

What about the GI50 (HOP-62) of the same compound?
Its GI50 is > 100 µM (inactive).

What about the GI50 (HOP-92) of the same compound?
The GI50 was > 100 µM (inactive).

And the GI50 (HT-29)?
Its GI50 is 25.5 µM (inactive).

And the GI50 (IGROV-1)?
The GI50 was 6.7 µM (inactive).

And the GI50 (K562)?
The GI50 was > 100 µM (inactive).

And the GI50 (KM12)?
Its GI50 is 28.9 µM (inactive).

And the GI50 (M14)?
The GI50 was 44.8 µM (inactive).

What about the GI50 (MCF7) of the same compound?
The GI50 was > 100 µM (inactive).

And the GI50 (MDA-MB-231)?
Its GI50 is > 100 µM (inactive).

What about the GI50 (MDA-MB-435) of the same compound?
The GI50 was 38.7 µM (inactive).

And the GI50 (MDA-N)?
Its GI50 is 37.6 µM (inactive).

And the GI50 (MOLT-4)?
Its GI50 is > 100 µM (inactive).

And the GI50 (Malme-3M)?
Its GI50 is > 100 µM (inactive).

And the GI50 (NCI-H226)?
Its GI50 is > 100 µM (inactive).

What about the GI50 (NCI-H23) of the same compound?
The GI50 was > 100 µM (inactive).

And the GI50 (NCI-H460)?
The GI50 was > 100 µM (inactive).

And the GI50 (NCI-H522)?
The GI50 was 35.1 µM (inactive).

And the GI50 (NCI/ADR-RES)?
The GI50 was > 100 µM (inactive).

And the GI50 (OVCAR-4)?
Its GI50 is > 100 µM (inactive).

What about the GI50 (OVCAR-5) of the same compound?
The GI50 was > 100 µM (inactive).

What about the GI50 (PC-3) of the same compound?
The GI50 was > 100 µM (inactive).

What about the GI50 (RPMI-8226) of the same compound?
Its GI50 is 39.6 µM (inactive).

And the GI50 (SF-268)?
The GI50 was > 100 µM (inactive).

And the GI50 (SF-295)?
Its GI50 is > 100 µM (inactive).

What about the GI50 (SK-MEL-28) of the same compound?
Its GI50 is > 100 µM (inactive).

What about the GI50 (SK-MEL-2) of the same compound?
The GI50 was > 100 µM (inactive).

What about the GI50 (SK-MEL-5) of the same compound?
The GI50 was 44.5 µM (inactive).

And the GI50 (SK-OV-3)?
The GI50 was > 100 µM (inactive).

What about the GI50 (SN12C) of the same compound?
Its GI50 is > 100 µM (inactive).

And the GI50 (SNB-19)?
The GI50 was > 100 µM (inactive).

What about the GI50 (SNB-75) of the same compound?
The GI50 was > 100 µM (inactive).

And the GI50 (SW-620)?
Its GI50 is > 100 µM (inactive).

And the GI50 (TK-10)?
The GI50 was > 100 µM (inactive).

What about the GI50 (U-251) of the same compound?
Its GI50 is > 100 µM (inactive).

What about the GI50 (UACC-257) of the same compound?
Its GI50 is > 100 µM (inactive).

And the GI50 (UACC-62)?
The GI50 was > 100 µM (inactive).

And the GI50 (UO-31)?
The GI50 was > 100 µM (inactive).
